Patent US9023812B2, “Neuroprotective ganglioside compositions for use in treating huntington's disease” (The Governors of the University of Alberta, priority 2009, dated 2015)

Experiments:
AKT = AKT activation (phospho-AKT/AKT ratio) by immunoblotting in striatal knock-in cells; assay type: cell-based, mouse; conditions: for phospho-AKT/AKT ratio: 7 minutes and 6 hours after addition of GM1, serum-free medium at 39° C.
Experimental: FIG. 7—GM1 protective effect on striatal cells is partially mediated by AKT activation. A) Akt phosphorylation was measured 7 minutes and 6 hours after addition of GM1 in serum-free medium and incubation at 39° C. to induce cell death. Analysis of phospho-AKT/AKT ratio, indicative of AKT activation, was performed by densitometric analysis of immunoblots in three independent experiments. In each experiment, the pospho-AKT/AKT ratio measured in wild-type untreated cells (control) was arbitrarily set to 100% to which HD and GM1-treated samples were compared. Mean values±SD and representative immunoblots are shown. […] The percentage of apoptotic cells was measured by annexin V binding. Data are the mean±SD of 3 experiments, each performed in triplicate. 7/7, STHdh^7Q/7Q; 111/111, STHdh^111Q/111Q; *, p<0.05; **, p<0.001; ***, p<0.0001
Cells were scraped in 10 mM Tris-HCl, pH 7.4, containing 1% NP40, 10 mM NaF, 1 mM Na2VO4 and 1:100 protease inhibitor cocktail (SIGMA-Aldrich, St. Louis, Mo., USA) and lysed by sonication followed by incubation on ice for 30 minutes. Cell debris were removed by centrifugation at 15,000×g for 15 minutes. Protein concentration in the supernatant was measured by BCA assay (Pierce). Thirty μg of proteins were resolved on 10% SDS-PAGE and transferred to nitrocellulose membranes (Bio-Rad Laboratories, Hercules, Calif., USA). Membranes were blocked with 5% non-fat milk in TBS-T (50 mM Tris-HCl, 150 mM NaCl, pH 7.4, 0.1% Tween 20) for 1 hour and then probed overnight with primary antibodies: anti-phospho-AKT (Ser473) (1:500), anti-AKT (1:500) (both from Cell Signaling), Abcam). HRP-conjugated secondary antibodies were used at 1:3,000 dilution (Bio-Rad Laboratories, Hercules, Calif., USA). Protein bands were detected by ECL Plus (Amersham Biosciences) and analyzed with Quantity One® software (Bio-Rad Laboratories, Hercules, Calif., USA).

wild-type mice = assay: Motor behavior (rotarod and horizontal ladder task) during chronic intraventricular GM1 infusion in wild-type littermates; conditions: intraventricular infusion for 28 days
Experimental: (§1) The pump infused a solution of 5.6 mg GM1/ml in artificial cerebrospinal fluid (CSF) (or CSF only in control groups) into the brain ventricle at constant rate (0.25 μl/h, corresponding to 1.4 μg GM1/h or 33.6 μg GM1/day) for 28 days. […] Mice were let recovery for a week, after which motor behavior tests were performed on weekly bases.
(§2) Motor behavior was evaluated with two sensitive tests that are considered the gold-standard for analysis of HD motor deficit: rotarod and horizontal ladder test (Ferrante, R. J. (2009)) To avoid that stress and anxiety would affect motor performance, mice were acclimatized for two days to training room, instruments and tasks to perform, before measuring the actual performance in each specific task. […] Latency to fall off the rotarod in each of these sessions was measured, averaged and compared across groups. For the horizontal ladder walking test, a task that assesses loss and recovery of sensori-motor functions 16, mice were recorded with a videocamera as they walked spontaneously across the ladder. […]
(§3) The pump infused a solution of 3.6 mg GM1/ml in artificial CSF (or CSF only in control groups) into the brain ventricle at constant rate (0.25 μl/h) for 4 weeks. The amount of GM1 infused was calculated in order to achieve 50 μM final concentration in the mouse CSF. […]

STHdh^111Q/111Q cells [1] = assay type: cell-based, mouse; conditions: 50 μM GM1, HD cells, FIG. 5C
YAC128 mice = assay: Motor behavior (rotarod and horizontal ladder task) during chronic intraventricular GM1 infusion in YAC128 mice
Experimental: as §1, §2, §3

mHtt = assay: Huntingtin immunoprecipitation and immunoblotting with anti-phospho-Ser antibody; assay type: cell-based, mouse; conditions: STHdh^111Q/111Q cells, 50 μM GM1 for 5 minutes
STHdh^7Q/7Q cells [2] = assay: Induction and measurement of apoptosis (annexin V binding / active caspase-3, FACS) in wild-type knock-in striatal cells; assay type: cell-based, mouse
Experimental: To inhibit ganglioside synthesis, wild-type cells were incubated for 3 days in medium containing 10 μM 1-phenyl-2-palmitoylamino-3-morpholino-1-propanol (PPMP, Matreya, Pleasant Gap, Pa., USA). Cells were then washed two times with PBS and incubated for 12 hours at 39° C. in serum-free medium to induce apoptosis.

STHdh^111Q/111Q cells [3] = assay: Induction and measurement of apoptosis (annexin V binding / active caspase-3, FACS) in HD knock-in striatal cells; conditions: for protection from apoptosis (annexin V binding, caspase 3 activation): 0.1-1-5-10-20 μM Liga20, knock-in striatal cells WT or HD, FIG. 13
Experimental: Conditionally-immortalized rat striatal ST14A cells and ST14A cells expressing an N-terminal fragment of mHtt containing 120 glutamines (N548-120Q) were kindly provided by Dr. E. Cattaneo (University of Milan, Italy) and maintained in culture at the permissive temperature (33° C.) as previously reported (Rigamonti et al., 2001). Conditionally-immortalized mouse striatal knock-in cells expressing endogenous levels of wild-type (STHdh^Q7/Q7) or mHtt (STHdh^Q111/Q111) were a gift from Dr. M. E. MacDonald (Massachusetts General Hospital, Boston, Mass., USA) and were maintained as previously described (Trettel et al., 2000).
In order to induce apoptosis immortalized cells were incubated at 39° C. […] For apoptosis detection, at the end of each treatment cells were collected, washed with PBS and incubated with PE-conjugated annexin V (BD Biosciences) according to the manufacturer's instructions. For the simultaneous detection of active caspase-3 and annexin V binding, cells were first labeled with annexin V as indicated above, then fixed in 4% paraformaldehyde and permeabilized with 0.3% saponin in PBS containing 4% donkey serum.
GM1 (Alexis) at the indicated concentrations was added to the cells in serum-free medium at the time when cells were shifted at 39° C. to induce apoptosis.
K252a (200 nM, Calbiochem) was used to inhibit TrK receptor-mediated signaling. […] Both inhibitors were administered to the cells 2 hours before induction of apoptosis and administration of GM1.

[4] = system: Htt phosphorylation at Ser13 and Ser16; assay: Htt phosphorylation in cerebral cortex homogenate of GM1- and CSF-infused mice (immunoblotting, pSer13Ser16 antibody); assay type: in vivo, mouse; conditions: YAC128 and WT littermates infused for 28 days
Experimental: At the end of the GM1 infusion protocol (28 days after peristaltic pump implantation), mice were euthanized. Brain cortices were dissected and homogenized in 50 mM Tris, 1% NP40, 1 mM EDTA, 10 mM NaF, 1 mM Na2VO4 and 1:100 protease inhibitor cocktail (SIGMA-Aldrich). […] Alexa680-conjugated secondary antibody were used at 1:1,000 dilution in Odyssey buffer. Imaging and analysis were performed using and Odyssey Infrared System (LiCor).
Subsequent to the experimental protocol on animals described above, the mouse brains were dissected and homogenized to examine Htt phosphorylation at Ser13 and Ser16.
In FIG. 20, YAC128 mice and WT littermates infused with CSF (vehicle) or GM1 for 28 days were sacrificed and the amount of phospho-Htt in the same amount of cerebral cortex homogenate was detected by immunoblotting with a pSer13Ser16 specific antibody.

[5] = cited from earlier work
STHdh^7Q/7Q cells [6] = assay type: cell-based, mouse
[7] = system: Htt phosphorylation at Ser13 and S16; assay: PPMP treatment and immunoblotting of total and phospho-Htt in striatal knock-in cells; assay type: cell-based, mouse; conditions: 10 μM PPMP for 3 days
Experimental: Knock-in striatal cells expressing wild-type Htt (7/7) or mHtt (111/111) (Trettel, F., et al. (2000)) were incubated for 3 days in medium containing 10 μM 1-phenyl-2-palmitoylamino-3-morpholino-1-propanol (PPMP, Matreya, Pleasant Gap, Pa., USA) to inhibit ganglioside synthesis. Cells were then washed two times with PBS and lysed in 50 mM Tris, 1% NP-40, 1 mM EDTA, 10 mM NaF, 1 mM Na2VO4 and 1:100 protease inhibitor cocktail (SIGMA-Aldrich). […] HRP-conjugated secondary antibodies were used at 1:3,000 dilution (Bio-Rad Laboratories, Hercules, Calif., USA). Protein bands were detected by ECL Plus and quantitated with Quantity One® software (Bio-Rad Laboratories, Hercules, Calif., USA).
In these experiments, synthesis of gangliosides was inhibited in striatal knock-in cells with PPMP, as above. Levels of total and phospho-Htt were detected in total cell lysates using immunoblotting (Panel A) with mAb2166 and N17pS13pS16 antibody, respectively. Panel B is a graph is the densitometric analysis of the immunoblot show in Panel A.

[8] = Wu et al., 2004; cited from earlier work

ganglioside GM1
phospho-AKT/AKT ratio (AKT; STHdh^7Q/7Q cells): increased the phospho-AKT/AKT ratio
levels of active (phospho) AKT compared with wild-type (AKT; STHdh^111Q/111Q cells after GM1 administration): restored to normal
phospho-AKT/AKT ratio (AKT; STHdh^111Q/111Q cells): increased the phospho-AKT/AKT ratio
behavioral differences GM1 versus CSF infusion (wild-type mice): No behavioral differences were noted
plasma membrane GM1 levels after GM1 administration (STHdh^111Q/111Q cells [1]): complete restoration of GM1 levels
motor behavior compared with wild-type mice (YAC128 mice; after 13 days of GM1 infusion): indistinguishable from wild-type mice
motor behavior (rotarod, horizontal ladder task) versus CSF-infused HD mice (YAC128 mice; intraventricular infusion 0.25 μl/h for 28 days, 3 mice per group): performed significantly better than HD control mice infused with CSF
mHtt phosphorylation (phospho-Ser/mHtt) (mHtt): increased mHtt phosphorylation
protection from apoptosis (annexin V binding, active caspase-3) (STHdh^7Q/7Q cells [2]; 50 μM, serum deprivation at 39° C., wild-type cells): protected both wild-type and HD cells from apoptosis
cell survival (STHdh^7Q/7Q cells [2]; treated wild-type cells, 50 μM GM1, apoptotic conditions): cell survival was also further augmented
effect of GM1 on PPMP-induced susceptibility to apoptosis (STHdh^7Q/7Q cells [2]; wild-type cells pre-treated with 10 μM PPMP for 3 days): abolished PPMP effects
susceptibility of HD cells to apoptosis compared with wild-type cells (STHdh^111Q/111Q cells [3]; 50 μM, serum deprivation at 39° C.): restored normal susceptibility to apoptosis in HD cells
protection from apoptosis (annexin V binding, active caspase-3) (STHdh^111Q/111Q cells [3]; 50 μM, serum deprivation at 39° C., HD cells): protected both wild-type and HD cells from apoptosis
dose-dependency of GM1 anti-apoptotic action (STHdh^111Q/111Q cells [3]; knock-in striatal cells (7/7 and 111/111), 6 hours in serum-free medium at 39° C., FIG. 9): dose-dependent
phosphorylation of Htt at Ser13 and Ser16 in cerebral cortex [4]: increase in the phosphorylation of Htt at these residues
frequency of possible adverse effects such as Guillain-Barre' syndrome (GBS) ([5]; Alter, 1998): rare
safety in clinical trials ([5]; patients with stroke, Parkinson's disease, spinal cord injury): relatively safe to use
GM1 content after GM1 administration (STHdh^7Q/7Q cells [6]; 50 μM GM1, treated wild-type cells, FIG. 5C): further increase of GM1 content above their normal levels

CCCCCCCCCCCCCCCC(=O)NC(CN1CCOCC1)C(O)c1ccccc1 (stereo not shown) [PPMP, 1-phenyl-2-palmitoylamino-3-morpholino-1-propanol]
cell susceptibility to apoptosis after inhibition of ganglioside synthesis (STHdh^7Q/7Q cells [2]; 10 μM PPMP for 3 days, then 12 hours serum-free medium at 39° C., FIG. 6B): increased STHdh^7Q/7Q cell susceptibility to apoptosis to the levels observed in STHdh^111Q/111Q cells
Htt phosphorylation at Ser13 and S16 after inhibition of ganglioside synthesis [7]: decreases levels of phosphorylation at the same amino acid residues
plasma membrane GM1 levels after inhibition of ganglioside synthesis (STHdh^7Q/7Q cells [6]; 10 μM PPMP for 3 days, wild-type cells, FIG. 6A): reduce GM1 levels to the amount observed in STHdh^111Q/111Q cells

COC(=O)[C@@]1(O)C[C@H]2O[C@]1(C)n1c3ccccc3c3c4c(c5c6ccccc6n2c5c31)C(=O)NC4 [K252a]
effect of pan-Trk inhibitor on GM1 protective activity (STHdh^111Q/111Q cells [3]; 200 nM K252a, 2 hours pre-incubation before GM1 and apoptotic stress, 7/7 and 111/111 cells, FIG. 10): GM1 protective activity was still fully preserved

LIGA-20
protection from apoptosis (annexin V binding, caspase 3 activation) (STHdh^111Q/111Q cells [3]): not effective in protecting striatal cells
protection from apoptosis (annexin V binding, caspase 3 activation) (STHdh^111Q/111Q cells [3]; listed as Liga20): not protective in a genetic cell model of HD
potency relative to GM1 [8]: at least an order of magnitude more potent than GM1
